# Source: ChEMBL document CHEMBL1201862, “PubChem BioAssay data set” (2004)
# Calls of active or inactive are those of the source.
# Columns and labels:
# [1] = T. b. rhodesiense proliferation inhibition, dose response, STIB900 strain, plate reader, cherry pick (AID 651893); format: functional, cell-based; conditions: Trypanosoma brucei
# [2] = T. cruzi growth inhibition in host cells, dose response, cell-based, plate reader, dry powder, set 2 (AID 652275); format: functional
# [3] = T. cruzi intracellular amastigote growth inhibition, dose response, imaging, CA-I/72 strain, bovine embryo skeletal muscle, dry powder (AID 651885); format: functional, cell-based
# [4] = L. donovani amastigote growth inhibition, dose response, axenic amastigotes, plate reader, dry powder (AID 651892); format: functional, cell-based
# [5] = P. falciparum blood-stage growth inhibition, dose response, NF54 strain, plate reader, dry powder (AID 651889); format: functional, cell-based
# [6] = L. donovani amastigote growth inhibition, dose response, axenic amastigotes, plate reader, cherry pick (AID 651891); format: functional, cell-based; conditions: Leishmania donovani
# [7] = T. b. rhodesiense proliferation inhibition, dose response, STIB900 strain, plate reader, dry powder (AID 651894); format: functional, cell-based
# [8] = L-6 rat myoblast cytotoxicity, dose response, counter-screen for T. cruzi inhibitor project, cell-based, plate reader, dry powder (AID 651895); format: functional
# [9] = cytotoxicity in L-6 rat myocytes, dose response, cytotoxicity control, cell-based, plate reader, cherry-pick (AID 651896); format: functional
# [10] = T. cruzi amastigote growth inhibition, dose response, Tulahuen strain, L-6 host cells, dry powder (AID 651890); format: functional, cell-based
# [11] = intracellular Trypanosoma cruzi inhibitors in host cells – cell-based, plate reader, cherry-pick samples, set 3, dose response (AID 651818); format: functional;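 note: compounds incubated with infected cells for about four days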
# [12] = growth inhibition of intracellular T. cruzi, dose response, cell-based, plate reader, dry powder samples (AID 651845); format: functional
# HEK293 = test: HEK293T cell cytotoxicity, dose response, cytotoxicity control, ATP luminescence, cherry-pick samples (AID 687005); format: functional, cell-based; conditions: Homo sapiens;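 note: cells exposed to compound for 48 hours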
# [13] = HEK293 Cytotoxicity Assay Measured in Cell-Based System Using Plate Reader - 7071-01_Inhibitor_Dose_CherryPick_Activity_Set2.; format: functional
# [14] = HIV Env cell-cell fusion inhibitors, dose response, HIV entry, plate reader, dry powder (AID 687023); format: functional, cell-based
# [15] = inhibitors of clade B AD8 Env fusion, dose response, cell-based, cherry-pick (AID 652062); format: functional;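 note: luciferase signal from cell-cell fusion driven by HIV-1 clade B AD8 Env; potency is for inhibitors of fusion seen as a drop in luminescence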
# [16] = inhibitors of HIV Env-driven cell fusion, dose response, cherry-pick (AID 652057); format: functional, cell-based
# [17] = NIH/3T3 fibroblast cytotoxicity, dose response, cytotoxicity control, cell-based, dry powder samples (AID 651844); format: functional; conditions: NIH3T3
# [18] = NIH/3T3 fibroblast cytotoxicity, dose response, cytotoxicity control, cell-based, plate reader, dry powder, set 2 (AID 652280); format: functional; conditions: NIH3T3
# [19] = ADAM10 protease inhibitors, dose response, selectivity assay for ADAM17 exosite inhibitor project, biochemical, FRET peptide substrate, recombinant human ADAM10 (AID 743259);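 note: ADAM10 enzyme cleaving a FRET peptide substrate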
# [20] = target: Disintegrin and metalloproteinase domain-containing protein 17 (Homo sapiens, UniProt P78536); test: exosite inhibitors of ADAM17, dose response, biochemical (AID 743260)
# [21] = inhibitors of non-replicating M. tuberculosis, dose response, luciferase, dry powder (AID 651620); format: functional; conditions: Mycobacterium tuberculosis
# [22] = inhibitors of non-replicating M. tuberculosis, dose response, luciferase, dry powder (AID 651619); format: functional; conditions: Mycobacterium tuberculosis
# [23] = growth inhibition of replicating M. tuberculosis, dose response, counter-screen, dry powder, IC90 (AID 651617); format: functional; conditions: Mycobacterium tuberculosis
# [24] = HEK293T cell cytotoxicity, dose response, cytotoxicity control, luminescence plate reader, powder samples, set 4 (AID 651863); format: functional, cell-based; conditions: HEK293
# [25] = TRPM1 promoter luciferase reporter signal decrease, dose response, MITF inhibitor project, cell-based, SK-MEL-5, dry powder, set 8 (AID 624430); format: functional
# [26] = MITF: Counter assay: A375 proliferation Measured in Cell-Based System Using Plate Reader - 2084-03_Inhibitor_Dose_DryPowder_Activity_Set8.; format: functional; conditions: A-375
# [27] = MITF Orthogonal Assay: SK-MEL-5 CTG Assay Measured in Cell-Based System Using Plate Reader - 2084-02_Inhibitor_Dose_DryPowder_Activity_Set7.; format: functional
# [28] = A375 melanoma cell cytotoxicity, dose response, counter-screen for MITF inhibitor project, CellTiter-Glo luminescence, dry powder, set 2 (AID 624489); format: functional, cell-based;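 note: actives are compounds lowering A375 viability meaning general cytotoxicity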
# [29] = A375 melanoma cell viability loss, dose response, counter-screen for MITF inhibitor project, CellTiter-Glo luminescence, dry powder, set 4 (AID 624364); format: functional, cell-based; conditions: A-375;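 note: A375 melanoma cells are MITF independent so this is a counter screen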
# [30] = YAP1 pathway inhibition via CTGF transcript levels, dose response, cell-based, DLD1 colon cancer, RT-qPCR, cherry-pick (AID 1053122); format: functional; conditions: Cancer cell lines
# [31] = CTGF mRNA reduction under YAP1 overexpression, dose response, mechanism study for YAP1 pathway inhibitor project, DLD1 cells, RT-qPCR, cherry-pick (AID 1053127); format: functional, cell-based; conditions: DLD-1
# [32] = P. falciparum Dd2 growth inhibitors, dose response, SYBR Green, cherry-picked samples (AID 1159567); format: functional, cell-based
# Sequence of Disintegrin and metalloproteinase domain-containing protein 17 (P78536 whole entry, the tested form may be a part): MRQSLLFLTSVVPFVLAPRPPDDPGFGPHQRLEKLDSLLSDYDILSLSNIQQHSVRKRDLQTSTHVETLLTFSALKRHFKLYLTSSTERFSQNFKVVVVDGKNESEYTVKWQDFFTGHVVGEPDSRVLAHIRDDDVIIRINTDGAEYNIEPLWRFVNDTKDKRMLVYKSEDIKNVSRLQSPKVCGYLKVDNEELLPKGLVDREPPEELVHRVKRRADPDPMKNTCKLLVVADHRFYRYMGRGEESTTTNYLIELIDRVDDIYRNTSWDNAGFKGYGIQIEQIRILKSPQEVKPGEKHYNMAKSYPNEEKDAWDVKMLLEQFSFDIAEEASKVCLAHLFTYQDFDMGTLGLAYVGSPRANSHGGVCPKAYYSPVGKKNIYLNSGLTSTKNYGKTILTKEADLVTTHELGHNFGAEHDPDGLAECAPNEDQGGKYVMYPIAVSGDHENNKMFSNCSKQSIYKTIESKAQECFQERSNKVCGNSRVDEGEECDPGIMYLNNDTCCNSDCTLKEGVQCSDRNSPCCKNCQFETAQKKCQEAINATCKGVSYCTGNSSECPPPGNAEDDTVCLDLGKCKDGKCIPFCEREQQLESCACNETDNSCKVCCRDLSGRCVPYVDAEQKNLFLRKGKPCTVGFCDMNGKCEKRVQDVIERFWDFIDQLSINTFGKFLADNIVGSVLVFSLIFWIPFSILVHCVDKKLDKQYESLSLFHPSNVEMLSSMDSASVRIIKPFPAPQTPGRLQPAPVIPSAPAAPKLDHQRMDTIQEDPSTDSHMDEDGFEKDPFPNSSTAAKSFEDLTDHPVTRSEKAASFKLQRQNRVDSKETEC
structure (smiles),measurement,setting,value
C[C@H]1CN([C@@H](C)CO)C(=O)c2cccc(NC(=O)c3ccncc3)c2O[C@H]1CN(C)Cc1ccc(Oc2ccccc2)cc1,IC50,[1],6.15 µM (inactive)
same,AC50,[2],0.0116 µM (active)
same,IC50,[3],0.00042 µM (active)
same,IC50,[4],> 100 µM (inactive)
same,IC50,[5],2.94 µM (inactive)
same,IC50,[6],> 100 µM (inactive)
same,IC50,[7],3.62 µM (inactive)
same,IC50,[8],47.5 µM (inactive)
same,IC50,[9],43.7 µM (inactive)
same,IC50,[10],0.059 µM (active)
same,AC50,[11],0.08 µM (active)
same,AC50,[12],0.0252 µM (active)
C[C@H]1CCCCO[C@@H](CN(C)Cc2ccncc2)[C@@H](C)CN([C@@H](C)CO)C(=O)c2cc(NC(=O)Nc3ccccc3)ccc2O1,AC50,HEK293,33.2 µM (active)
same,AC50,[13],33.2 µM (active)
same,AC50,[14],10.7 µM (active)
same,AC50,[15],32.9 µM (active)
same,AC50,[16],0.764 µM (active)
CC(C)N1C[C@H](C)[C@@H](CN(C)Cc2ccc(Oc3ccccc3)cc2)Oc2c(NC(=O)C3CCNCC3)cccc2C1=O,AC50,[2],0.983 µM (active)
same,AC50,[17],8.99 µM (active)
same,AC50,[18],8.99 µM (active)
same,AC50,[12],0.983 µM (active)
COC(=O)C1=C(C)N(Cc2cccc(C(F)(F)F)c2)C(NCc2ccc3c(c2)OCO3)=NC1c1ccc(F)cc1 (stereo unspecified),IC50,[19],> 69.5 µM (inactive)
same,IC50,[20],> 69.5 µM (inactive)
COCCSc1nnc(-c2ccccc2)o1,IC90,[21],4 µM (active)
same,IC90,[22],4 µM (active)
same,IC90,[23],16 µM (active)
Cc1cc(C)c(S(=O)(=O)Nc2ncnc3ccccc23)c(C)c1,AC50,[24],44.2 µM (active)
O=C1C=C(Nc2ccccc2Cl)C(=O)c2ccccc21,AC50,[25],5.41 µM (active)
same,AC50,[26],> 70 µM (inactive)
same,AC50,[27],0.172 µM (active)
O=C1C(Nc2ccccc2)=C(N2CCOCC2)C(=O)c2ccccc21,AC50,[28],65.7 µM (active)
same,AC50,[28]; A-375,> 70 µM (inactive)
same,AC50,[29],> 70 µM (inactive)
CO[C@@H]1CN(C)C(=O)c2ccc(NC(=O)c3nc4ccccc4s3)cc2OC[C@@H](C)N(Cc2cccnc2)C[C@H]1C,AC50,[30],5.03 µM (active)
same,AC50,[31],19.6 µM (active)
same,AC50,[32],4.6 µM (active)
